Laboratory results: patent EP4660185A1, “NAV1.7- AND/OR NAV1.8-INHIBITING AMIDES, PROCESSES FOR THE PREPARATION THEREOF, COMPOSITIONS, USES, METHODS FOR TREATMENT USING SAME, AND KITS” (Eurofarma Laboratórios S.A., priority 2023, dated 2024)

Experiments:
[1] = target: T1, human sodium channels Nav 1.8 (Homo sapiens, UniProt Q9Y5Y9); experiment: Automated whole-cell voltage-clamp (ScreenPatch 384P) sodium current block, Nav 1.8; assay type: cell-based; details: CHO cells stably expressing human Nav 1.8; holding -100 mV, inactivation step -40 mV for 8 seconds, test step 10 mV (TP1A); exposure at least five minutes, room temperature; mean where tested in two or more assays; read-out: Nav1.8 IC50
T1 construct: expressed in transfected cells
Protocol: (§1) Biological assays were performed on Chinese hamster ovary (CHO) cells that express human sodium channels Nav 1.8 or Nav 1.7 in a stable manner.
(§2) The experimental protocol voltage-clamp using the whole cell configuration was established on the automated ScreenPatch® 384P platform (SP384PE, Nanion Technologies, Livingston, NJ) and the results were recorded with a Nanion 384-well Patch Clamp chip (NPC) (Nanion Technologies, Livingston, NJ).
(§3) Compounds of Formula Ia and Formula Ib were diluted in eight concentrations in the extracellular solution composed of saline solution, buffered with HEPES (mM): NaCl, 137; KCl, 4; CaCl2, 3,8; MgCl2, 1; HEPES, 10; Glucose, 10; pH 7.4. The […], 50; CsF, 90; MgCl2, 5; EGTA, 5; HEPES, 10; pH 7.2. The duration of exposure of each compound with cells expressing Nav 1.7 or Nav 1.8 was at least five minutes, and the assays were performed at room temperature.
(§4) The measurements of the sodium currents of Nav 1.8 and Nav 1.7 were obtained using the voltage protocol described below: A holding voltage of -100 mV was established followed by an inactivation voltage step at -40 mV for 8 seconds, followed by a step of -100 mV for 20 ms, followed by a 20 ms step for 10 mV for Nav 1.8 or 0 mV for Nav 1.7 (TP1A) before returning to the holding voltage of -100 mV.
(§5) The protocol was repeated at a frequency of 0.05 Hz and the amplitude of the current was quantified throughout the recording of the TP1A phase. The variation in the amplitude of the peak current was evaluated according to the formula described below, after exposing the cells expressing the channels to each concentration of the different compounds: % Block = (1−(ITP1A,molecule/ITP1A,basal)×100%, [formula] wherein ITP1A,basal and ITP1A,molecule represent the peaks of sodium current input into TP1A before exposure to the compound and in the presence of the compound, respectively.
(§6) Data were obtained by nonlinear regression (nonlinear least squares) with XLfit for Excel (Microsoft, Redmond, WA).
(§7) The compounds were tested in at least one assay to obtain the value of CI50. For compounds that were tested in two or more assays, the results are described as the mean of the CI50 values.

[2] = target: T2, human sodium channels Nav 1.7 (Homo sapiens, UniProt Q15858); experiment: Automated whole-cell voltage-clamp (ScreenPatch 384P) sodium current block, Nav 1.7; assay type: cell-based; details: CHO cells stably expressing human Nav 1.7; holding -100 mV, inactivation step -40 mV for 8 seconds, test step 0 mV (TP1A); exposure at least five minutes, room temperature; mean where tested in two or more assays; read-out: Nav1.7 IC50
T2 construct: expressed in transfected cells
Protocol: as §1, §2, §3, §4, §5, §6, §7

T1 sequence (Q9Y5Y9 whole entry): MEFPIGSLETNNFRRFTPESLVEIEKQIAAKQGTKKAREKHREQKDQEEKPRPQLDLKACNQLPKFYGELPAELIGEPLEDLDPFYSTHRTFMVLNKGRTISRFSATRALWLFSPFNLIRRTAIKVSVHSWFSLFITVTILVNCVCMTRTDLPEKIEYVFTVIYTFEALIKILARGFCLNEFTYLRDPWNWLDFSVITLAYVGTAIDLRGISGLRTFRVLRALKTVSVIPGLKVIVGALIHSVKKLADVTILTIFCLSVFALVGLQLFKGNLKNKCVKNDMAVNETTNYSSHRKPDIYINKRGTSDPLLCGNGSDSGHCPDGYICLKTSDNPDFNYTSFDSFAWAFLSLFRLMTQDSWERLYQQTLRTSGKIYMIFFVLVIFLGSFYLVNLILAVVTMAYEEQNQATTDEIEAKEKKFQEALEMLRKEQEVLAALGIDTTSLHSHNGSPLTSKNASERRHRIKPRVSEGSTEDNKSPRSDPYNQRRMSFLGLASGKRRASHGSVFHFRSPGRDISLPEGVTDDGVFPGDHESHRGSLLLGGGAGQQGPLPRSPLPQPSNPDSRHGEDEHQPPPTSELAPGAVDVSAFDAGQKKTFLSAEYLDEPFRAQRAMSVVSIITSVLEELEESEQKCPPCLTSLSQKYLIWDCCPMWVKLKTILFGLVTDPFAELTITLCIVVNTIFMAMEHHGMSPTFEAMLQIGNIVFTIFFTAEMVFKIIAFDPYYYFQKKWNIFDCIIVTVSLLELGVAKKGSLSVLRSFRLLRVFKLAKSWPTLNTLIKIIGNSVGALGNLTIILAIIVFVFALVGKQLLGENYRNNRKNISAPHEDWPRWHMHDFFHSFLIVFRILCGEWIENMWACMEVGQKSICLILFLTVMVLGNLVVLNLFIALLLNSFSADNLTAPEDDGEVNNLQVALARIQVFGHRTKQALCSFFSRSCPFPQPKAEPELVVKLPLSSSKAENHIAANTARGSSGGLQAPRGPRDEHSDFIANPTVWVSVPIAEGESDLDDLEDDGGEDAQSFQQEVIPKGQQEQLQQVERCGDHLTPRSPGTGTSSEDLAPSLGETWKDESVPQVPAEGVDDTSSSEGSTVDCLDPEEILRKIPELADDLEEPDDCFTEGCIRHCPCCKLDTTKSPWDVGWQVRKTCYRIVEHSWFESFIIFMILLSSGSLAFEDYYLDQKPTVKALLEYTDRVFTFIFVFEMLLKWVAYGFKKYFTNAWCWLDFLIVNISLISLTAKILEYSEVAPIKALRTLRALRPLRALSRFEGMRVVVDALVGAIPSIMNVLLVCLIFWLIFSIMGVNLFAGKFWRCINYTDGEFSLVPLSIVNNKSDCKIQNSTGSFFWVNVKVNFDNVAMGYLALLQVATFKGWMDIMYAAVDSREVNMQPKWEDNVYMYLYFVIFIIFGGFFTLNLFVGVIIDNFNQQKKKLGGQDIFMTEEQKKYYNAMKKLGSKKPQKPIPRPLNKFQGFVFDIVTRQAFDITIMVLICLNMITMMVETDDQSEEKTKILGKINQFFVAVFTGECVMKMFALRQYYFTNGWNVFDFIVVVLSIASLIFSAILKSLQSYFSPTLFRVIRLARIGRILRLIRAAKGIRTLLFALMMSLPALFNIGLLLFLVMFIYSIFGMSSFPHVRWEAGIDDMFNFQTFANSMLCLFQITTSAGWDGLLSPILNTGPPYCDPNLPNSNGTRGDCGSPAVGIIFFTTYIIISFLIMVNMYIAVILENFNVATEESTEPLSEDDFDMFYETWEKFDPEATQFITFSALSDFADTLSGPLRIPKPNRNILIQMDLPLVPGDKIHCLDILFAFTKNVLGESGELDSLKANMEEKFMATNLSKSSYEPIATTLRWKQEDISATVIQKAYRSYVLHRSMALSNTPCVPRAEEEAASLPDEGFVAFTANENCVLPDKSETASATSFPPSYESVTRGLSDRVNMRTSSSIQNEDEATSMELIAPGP
T2 sequence (Q15858 whole entry): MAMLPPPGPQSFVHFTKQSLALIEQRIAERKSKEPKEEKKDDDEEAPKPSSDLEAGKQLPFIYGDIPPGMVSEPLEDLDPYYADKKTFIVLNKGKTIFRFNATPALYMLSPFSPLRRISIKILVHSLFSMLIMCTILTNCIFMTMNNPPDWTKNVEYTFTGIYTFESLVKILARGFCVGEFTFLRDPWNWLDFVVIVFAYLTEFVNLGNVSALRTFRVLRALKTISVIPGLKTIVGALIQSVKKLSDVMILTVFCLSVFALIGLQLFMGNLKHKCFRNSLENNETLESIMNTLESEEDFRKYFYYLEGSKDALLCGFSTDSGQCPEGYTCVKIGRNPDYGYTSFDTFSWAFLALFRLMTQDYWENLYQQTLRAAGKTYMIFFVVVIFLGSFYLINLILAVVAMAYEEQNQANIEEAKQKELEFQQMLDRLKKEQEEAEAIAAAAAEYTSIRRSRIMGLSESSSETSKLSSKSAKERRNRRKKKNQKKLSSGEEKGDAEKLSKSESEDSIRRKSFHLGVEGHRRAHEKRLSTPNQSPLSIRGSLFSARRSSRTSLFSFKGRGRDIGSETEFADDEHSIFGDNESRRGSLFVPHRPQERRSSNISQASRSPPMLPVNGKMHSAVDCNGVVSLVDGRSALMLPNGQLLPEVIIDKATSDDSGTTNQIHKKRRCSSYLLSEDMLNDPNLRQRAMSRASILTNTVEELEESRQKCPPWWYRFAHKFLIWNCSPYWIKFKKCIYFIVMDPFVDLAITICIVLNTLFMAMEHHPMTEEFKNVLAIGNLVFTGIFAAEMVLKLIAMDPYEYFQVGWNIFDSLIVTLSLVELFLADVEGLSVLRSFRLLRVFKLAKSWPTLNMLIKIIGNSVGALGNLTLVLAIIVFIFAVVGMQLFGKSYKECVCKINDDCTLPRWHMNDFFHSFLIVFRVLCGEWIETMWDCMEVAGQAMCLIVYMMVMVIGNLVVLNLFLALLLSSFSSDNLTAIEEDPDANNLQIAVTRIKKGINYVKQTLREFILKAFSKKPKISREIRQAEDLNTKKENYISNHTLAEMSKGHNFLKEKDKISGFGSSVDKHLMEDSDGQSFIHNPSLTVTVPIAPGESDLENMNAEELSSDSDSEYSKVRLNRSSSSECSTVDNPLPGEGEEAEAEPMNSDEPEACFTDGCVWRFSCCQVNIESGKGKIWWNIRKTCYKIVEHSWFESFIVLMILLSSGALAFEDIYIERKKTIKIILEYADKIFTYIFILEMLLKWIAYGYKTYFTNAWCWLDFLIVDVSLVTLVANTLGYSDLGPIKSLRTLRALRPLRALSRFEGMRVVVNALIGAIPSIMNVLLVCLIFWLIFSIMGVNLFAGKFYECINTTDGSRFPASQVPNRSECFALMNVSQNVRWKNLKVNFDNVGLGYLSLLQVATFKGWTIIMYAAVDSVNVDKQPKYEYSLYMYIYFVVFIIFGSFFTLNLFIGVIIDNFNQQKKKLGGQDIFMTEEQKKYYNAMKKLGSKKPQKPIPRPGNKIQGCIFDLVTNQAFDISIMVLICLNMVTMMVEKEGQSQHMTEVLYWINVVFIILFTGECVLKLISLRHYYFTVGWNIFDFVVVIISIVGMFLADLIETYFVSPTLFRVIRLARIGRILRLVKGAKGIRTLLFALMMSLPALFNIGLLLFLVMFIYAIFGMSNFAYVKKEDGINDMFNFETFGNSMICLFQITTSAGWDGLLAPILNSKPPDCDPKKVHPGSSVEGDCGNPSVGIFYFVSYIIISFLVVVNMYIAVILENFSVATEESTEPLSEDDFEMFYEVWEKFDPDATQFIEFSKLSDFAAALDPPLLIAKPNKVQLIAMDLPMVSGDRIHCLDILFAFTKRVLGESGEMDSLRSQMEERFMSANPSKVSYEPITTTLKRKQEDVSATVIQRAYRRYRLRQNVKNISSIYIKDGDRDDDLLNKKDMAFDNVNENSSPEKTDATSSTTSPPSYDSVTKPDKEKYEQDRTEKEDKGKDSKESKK

SMILES	IC50 [1] [µM]	IC50 [2] [µM]
CCOc1ccc(-c2cncc(C(=O)Nc3cc4c(F)ccc(OC)c4n3C)n2)cn1 [compound 70]	> 1	> 1
CCOc1ccc(-c2cncc(C(=O)Nc3cc4c(OC)cccc4[nH]3)n2)cn1 [compound 73]	> 1	> 1
CCOc1ccc(-c2cncc(C(=O)Nc3cc4c(OC)ccc(F)c4[nH]3)n2)cn1 [compound 74]	< 0.5	0.5 to 1
CCOc1ccc(-c2cncc(C(=O)Nc3cc4c(OC)ccc(F)c4n3C)n2)cn1 [compound 75]	> 1	> 1
CCOc1ccc(-c2cncc(C(=O)Nc3cc4c(F)ccc(OC)c4[nH]3)n2)cc1 [compound 76]	> 1	> 1
CCOc1ccc(-c2cncc(C(=O)N[C@H]3CCc4c(OC)ccc(F)c4C3)n2)cn1 [compound 78]	< 0.5	> 1
CCOc1ccc(-c2cncc(C(=O)N[C@@H]3Cc4c(F)ccc(OC)c4C3)n2)cn1 [compound 81]	< 0.5	> 1
CCOc1ccc(-c2cncc(C(=O)N[C@H]3Cc4c(F)ccc(OC)c4C3)n2)cn1 [compound 82]	0.5 to 1	> 1
CCOc1ccc(-c2cncc(C(=O)N[C@H]3Cc4c(OC)cnc(F)c4C3)n2)cn1 [compound 83]	> 1	> 1
CCOc1ccc(-c2cncc(C(=O)NCc3cnc4ccc(OC)cn34)n2)cn1 [compound 86]	> 1	> 1
[2H]C([2H])([2H])Oc1cc(OC([2H])([2H])[2H])cc([C@H](O)CNC(=O)c2cncc(-c3ccc(OC([2H])([2H])[2H])nc3)n2)c1 [compound 92]	> 1	> 1
CCOc1ccc(-c2cnnc(C(=O)NCCc3cc(OC)cnc3F)c2)cc1 [compound 101]	> 1	> 1
CCOc1ccc(-c2cncc(C(=O)NCCc3cc(OC)cnc3F)c2)cc1 [compound 102]	> 1	> 1
CCOc1ccc(-c2nccc(C(=O)NCCc3cc(OC)cnc3F)n2)cc1 [compound 106]	> 1	> 1
CCOc1ccc(-c2ccnc(C(=O)NCCc3cc(OC)cnc3F)n2)cc1 [compound 107]	0.5 to 1	> 1
CCOc1ccc(-c2nccc(C(=O)NCCc3cc(OC)cnc3F)n2)cn1 [compound 110]	> 1	> 1
CCOc1ccc(-c2ccnc(C(=O)NCCc3cc(OC)cnc3F)c2)cn1 [compound 114]	> 1	> 1
CCOc1ccc(-c2ccnc(C(=O)NCCc3cc(OC)cnc3F)n2)cn1 [compound 115]	> 1	> 1

The remaining lines, values ahead:

IC50 [1] [µM]	IC50 [2] [µM]	SMILES
< 0.5	> 1	CCOc1ccc(-c2cncc(C(=O)Nc3cc4c(F)ccc(OC)c4[nH]3)n2)cn1 [compound 69]
> 1	> 1	CCOc1ccc(-c2cncc(C(=O)N(C)c3cc4c(F)ccc(OC)c4[nH]3)n2)cn1 [compound 71]
> 1	> 1	CCOc1ccc(-c2cncc(C(=O)Nc3cc4cccc(OC)c4[nH]3)n2)cn1 [compound 72]
> 1	> 1	CCOc1ccc(-c2cncc(C(=O)Nc3cc4c(OC)ccc(F)c4[nH]3)n2)cc1 [compound 77]
0.5 to 1	0.5 to 1	CCOc1ccc(-c2cncc(C(=O)N[C@@H]3CCc4c(OC)ccc(F)c4C3)n2)cn1 [compound 79]
< 0.5	> 1	CCOc1ccc(-c2cncc(C(=O)NCc3ccc4ccc(OC)cn34)n2)cn1 [compound 80]
< 0.5	> 1	CCOc1ccc(-c2cncc(C(=O)N[C@@H]3Cc4c(OC)cnc(F)c4C3)n2)cn1 [compound 84]
> 1	> 1	CCOc1ccc(-c2cncc(C(=O)NCc3ncc4ccc(OC)cn34)n2)cn1 [compound 85]
< 0.5	> 1	[2H]C([2H])([2H])Oc1ccc(-c2cncc(C(=O)NCCc3ccccc3F)n2)cn1 [compound 89]
> 1	> 1	[2H]C([2H])([2H])Oc1ccc(-c2cncc(C(=O)NCCc3cc(OC)cnc3F)n2)cn1 [compound 90]
< 0.5	> 1	[2H]C([2H])([2H])Oc1cc(OC([2H])([2H])[2H])cc([C@H](O)CNC(=O)c2cncc(-c3ccc(OC(F)F)nc3)n2)c1 [compound 91]
< 0.5	> 1	[2H]C([2H])([2H])Oc1ccc(-c2cncc(C(=O)NC[C@@H](O)c3cc(OC)cc(OC)c3)n2)cc1 [compound 93]
< 0.5	> 1	[2H]C([2H])([2H])Oc1ccc(-c2cncc(C(=O)NCCc3cc(OC)cnc3F)n2)cc1 [compound 94]
< 0.5	> 1	[2H]C([2H])([2H])Oc1ccc(-c2cncc(C(=O)NCCc3cc(OC)cc(OC)c3)n2)cc1 [compound 95]
< 0.5	> 1	[2H]C([2H])([2H])Oc1cc(OC([2H])([2H])[2H])cc([C@H](O)CNC(=O)c2cncc(-c3ccc(OC(F)F)cc3)n2)c1 [compound 96]
> 1	> 1	CCOc1ccc(-c2cc(C(=O)NCCc3cc(OC)cnc3F)cnn2)cc1 [compound 100]
> 1	> 1	CCOc1ccc(-c2cccc(C(=O)NCCc3cc(OC)cnc3F)n2)cc1 [compound 103]
> 1	> 1	CCOc1ccc(-c2cc(C(=O)NCCc3cc(OC)cnc3F)ccn2)cc1 [compound 104]
> 1	< 0.5	CCOc1ccc(-c2ccnc(C(=O)NCCc3cc(OC)cnc3F)c2)cc1 [compound 105]
> 1	> 1	CCOc1ccc(-c2cccc(C(=O)NCCc3cc(OC)cnc3F)n2)cn1 [compound 108]
> 1	> 1	CCOc1ccc(-c2cc(C(=O)NCCc3cc(OC)cnc3F)ccn2)cn1 [compound 109]
> 1	> 1	CCOc1ccc(-c2cc(C(=O)NCCc3cc(OC)cnc3F)cnn2)cn1 [compound 111]
> 1	> 1	CCOc1ccc(-c2cnnc(C(=O)NCCc3cc(OC)cnc3F)c2)cn1 [compound 112]
> 1	> 1	CCOc1ccc(-c2cncc(C(=O)NCCc3cc(OC)cnc3F)c2)cn1 [compound 113]
